In PubChem BioAssay (NCI):
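How tested: cells in 96-well plates exposed to compound for 48 hours at five concentrations. Here, GI50 denotes the concentration required for 50% inhibition of growth. Definition used: TGI = concentration required for complete inhibition of growth.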

How the values were obtained:
Assay in all cases: inhibition of tumour cell growth, NCI panel, 48 h
[1] = test system: SN12C renal
[2] = test system: DU-145 prostate
[3] = test system: SK-MEL-5 melanoma
[4] = test system: PC-3 prostate
[5] = test system: U251 CNS
[6] = test system: NCI-H522 lung
[7] = test system: A549 NSCLC
[8] = test system: SW-620 colon
[9] = test system: SF-539 CNS
[10] = test system: MOLT-4 leukemia
[11] = test system: BT-549 breast
[12] = test system: ACHN renal
[13] = test system: RPMI-8226 leukemia
[14] = test system: T-47D breast
[15] = test system: HOP-62 NSCLC
[16] = test system: M14 melanoma
[17] = test system: MALME-3M melanoma
[18] = test system: HCT-116 colon
[19] = test system: SF-268 CNS
[20] = test system: SK-MEL-2 melanoma
[21] = test system: SK-MEL-28 melanoma
[22] = test system: NCI-H460 lung
[23] = test system: NCI/ADR-RES ovarian
[24] = test system: 786-0 renal
[25] = test system: OVCAR-3 ovarian
[26] = test system: SNB-19 CNS
[27] = test system: MDA-MB-435
[28] = test system: HS 578T breast
[29] = test system: LOX IMVI melanoma
[30] = test system: RXF 393 renal
[31] = test system: UO-31 renal
[32] = test system: OVCAR-5 ovarian
[33] = test system: UACC-257 melanoma
[34] = test system: SK-OV-3 ovarian
[35] = test system: MDA-MB-231 breast
[36] = test system: SNB-75 CNS
[37] = test system: HCC-2998 colon
[38] = test system: K-562 leukemia
[39] = test system: SR leukemia
[40] = test system: HCT-15 colon
[41] = test system: CAKI-1 renal
[42] = test system: TK-10 renal
[43] = test system: KM12 colon
[44] = test system: EKVX NSCLC
[45] = test system: COLO 205 colon
[46] = test system: HOP-92 NSCLC
[47] = test system: UACC-62 melanoma
[48] = test system: NCI-H226 lung
[49] = test system: A498 renal
[50] = test system: MCF7 breast
[51] = test system: OVCAR-8 ovarian
[52] = test system: NCI-H23 lung
[53] = test system: IGROV1 ovarian
[54] = test system: CCRF-CEM leukemia
[55] = test system: HL-60(TB) leukemia

O=C(CNc1ncco1)Nc1ccc(S(=O)(=O)c2ccc(NC(=O)CNc3ncco3)cc2)cc1
GI50 [1]: 3.77 µM | TGI [1]: 14.7 µM | GI50 [2]: 4.79 µM | TGI [2]: 16.4 µM | GI50 [3]: 1.52 µM | TGI [3]: 2.88 µM | GI50 [4]: 2.49 µM | TGI [4]: 8.32 µM | GI50 [5]: 1.17 µM | TGI [5]: 2.48 µM | GI50 [6]: 1.48 µM | TGI [6]: 3.14 µM | GI50 [7]: 2.2 µM | TGI [7]: 6.42 µM | GI50 [8]: 1.75 µM | TGI [8]: 4.13 µM | GI50 [9]: 1.7 µM | TGI [9]: 3.9 µM | GI50 [10]: 3.13 µM | TGI [10]: 8.45 µM | GI50 [11]: 2.09 µM | TGI [11]: 6.26 µM | GI50 [12]: 2.23 µM | TGI [12]: 6.23 µM | GI50 [13]: 1.11 µM | TGI [13]: 3.01 µM | GI50 [14]: 1.87 µM | TGI [14]: 4.38 µM | GI50 [15]: 2.07 µM | TGI [15]: 4.09 µM | GI50 [16]: 1.7 µM | TGI [16]: 3.55 µM | GI50 [17]: 2.12 µM | TGI [17]: 4.56 µM | GI50 [18]: 1.42 µM | TGI [18]: 2.98 µM | GI50 [19]: 1.53 µM | TGI [19]: 4.54 µM | GI50 [20]: 2.49 µM | TGI [20]: 5.65 µM | GI50 [21]: 2.38 µM | TGI [21]: 5.51 µM | GI50 [22]: 2.02 µM | TGI [22]: 4.29 µM | GI50 [23]: 3.02 µM | TGI [23]: 19.6 µM | GI50 [24]: 3.95 µM | TGI [24]: 18.3 µM | GI50 [25]: 1.63 µM | TGI [25]: 3.71 µM | GI50 [26]: 2.88 µM | TGI [26]: 12.8 µM | GI50 [27]: 2.08 µM | TGI [27]: 7.26 µM | GI50 [28]: 14.3 µM | TGI [28]: > 100 µM | GI50 [29]: 0.308 µM | TGI [29]: 1.92 µM | GI50 [30]: 1.42 µM | TGI [30]: 2.86 µM | GI50 [31]: 3.03 µM | TGI [31]: 17.3 µM | GI50 [32]: 2.03 µM | TGI [32]: 4.13 µM | GI50 [33]: 1.85 µM | TGI [33]: 4.86 µM | GI50 [34]: 10.5 µM | TGI [34]: 24.1 µM | GI50 [35]: 2.66 µM | TGI [35]: 7.38 µM | GI50 [36]: 6.04 µM | TGI [36]: 20.7 µM | GI50 [37]: 3.44 µM | TGI [37]: 16.4 µM | GI50 [38]: 2 µM | TGI [38]: 5.95 µM | GI50 [39]: 2.36 µM | TGI [39]: 5.35 µM | GI50 [40]: 1.47 µM | TGI [40]: 5.44 µM | GI50 [41]: 1.56 µM | TGI [41]: 3.28 µM | GI50 [42]: 11.7 µM | TGI [42]: 25 µM | GI50 [43]: 1.74 µM | TGI [43]: 3.43 µM | GI50 [44]: 2.23 µM | TGI [44]: 9 µM | GI50 [45]: 1.75 µM | TGI [45]: 3.55 µM | GI50 [46]: 3.37 µM | TGI [46]: 13 µM | GI50 [47]: 1.75 µM | TGI [47]: 3.65 µM | GI50 [48]: 2.32 µM | TGI [48]: 7.09 µM | GI50 [49]: 21.8 µM | TGI [49]: 62.7 µM | GI50 [50]: 1.34 µM | TGI [50]: 5.66 µM | GI50 [51]: 2.4 µM | TGI [51]: 15.7 µM | GI50 [52]: 2.46 µM | TGI [52]: 9.51 µM | GI50 [53]: 1.76 µM | TGI [53]: 5.32 µM | GI50 [54]: 1.08 µM | TGI [54]: 5.91 µM | GI50 [55]: 4.72 µM | TGI [55]: 21.3 µM
